Experimental data from the NIST ThermoML archive (doi:10.1016/j.fluid.2005.05.012).

Assay: xn = mol fraction of the nth substance listed
Conditions: 101.33 kPa, Liquid

CN1CCNCC1 [N-methylpiperazine] + CCCO
Conditions	mass density, 293.15 K [kg/m3]	mass density, 298.15 K [kg/m3]	mass density, 303.15 K [kg/m3]	viscosity, 293.15 K [mPa·s]	viscosity, 298.15 K [mPa·s]	viscosity, 303.15 K [mPa·s]
x2 = 0	903.79	899.8	894.54	2.1	1.841	1.624
x2 = 0.1017	899.72	895.76	890.62	2.24	1.962	1.716
x2 = 0.1987	895.17	891.23	886.21	2.369	2.058	1.809
x2 = 0.3	889.62	885.71	880.86	2.536	2.2	1.932
x2 = 0.4007	883.15	879.31	874.64	2.689	2.326	2.035
x2 = 0.4998	875.68	871.91	867.4	2.817	2.438	2.129
x2 = 0.5504	871.35	867.6	863.18	2.863	2.478	2.167
x2 = 0.6011	866.59	862.85	858.5	2.895	2.506	2.192
x2 = 0.6542	861.09	857.34	853.04	2.885	2.504	2.193
x2 = 0.7001	855.83	852.05	847.8	2.874	2.497	2.186
x2 = 0.7495	849.57	845.75	841.53	2.833	2.473	2.175
x2 = 0.7991	842.55	838.67	834.47	2.752	2.413	2.124
x2 = 0.902	825.1	821.08	816.93	2.54	2.23	1.98

CN1CCNCC1 [N-methylpiperazine] + CCO
Conditions	mass density, 293.15 K [kg/m3]	mass density, 298.15 K [kg/m3]	mass density, 303.15 K [kg/m3]	viscosity, 293.15 K [mPa·s]	viscosity, 298.15 K [mPa·s]	viscosity, 303.15 K [mPa·s]
x2 = 0	903.79	899.8	894.54	2.1	1.841	1.624
x2 = 0.1002	900.18	896.19	891.01	2.141	1.87	1.65
x2 = 0.1994	896.41	892.42	887.31	2.206	1.924	1.694
x2 = 0.3003	891.73	887.75	882.73	2.27	1.977	1.741
x2 = 0.3493	889.02	885.06	880.09	2.285	1.992	1.753
x2 = 0.4021	885.73	881.8	876.89	2.301	2.009	1.771
x2 = 0.451	882.31	878.41	873.55	2.288	2.001	1.764
x2 = 0.5004	878.44	874.56	869.77	2.267	1.977	1.746
x2 = 0.5994	869.22	865.36	860.68	2.175	1.909	1.698
x2 = 0.7011	857.04	853.14	848.58	1.996	1.772	1.595
x2 = 0.8003	841.28	837.28	832.81	1.779	1.591	1.429
x2 = 0.8982	820.12	815.97	811.57	1.526	1.366	1.239

CN1CCNCC1 [N-methylpiperazine] + CO
Conditions	mass density, 293.15 K [kg/m3]	mass density, 298.15 K [kg/m3]	mass density, 303.15 K [kg/m3]	viscosity, 293.15 K [mPa·s]	viscosity, 298.15 K [mPa·s]	viscosity, 303.15 K [mPa·s]
x2 = 0	903.8	899.8	894.52	2.1	1.841	1.624
x2 = 0.1021	902.85	899.04	893.84	2.103	1.849	1.643
x2 = 0.1999	901.87	898.08	892.86	2.147	1.897	1.692
x2 = 0.3286	899.35	895.54	890.39	2.167	1.924	1.722
x2 = 0.4143	896.64	892.82	887.8	2.141	1.897	1.676
x2 = 0.4991	892.94	889.13	884.25	2.04	1.8	1.61
x2 = 0.6016	886.48	882.68	877.91	1.875	1.654	1.475
x2 = 0.6999	876.84	873	868.21	1.62	1.447	1.299
x2 = 0.7998	860.91	856.96	851.99	1.306	1.169	1.06
x2 = 0.8999	834.46	830.26	825.04	0.935	0.854	0.788

CCCCO [butan-1-ol] + CN1CCNCC1
x1 = 1
Conditions	mass density [kg/m3]	viscosity [mPa·s]
293.15 K	809.97	2.938
298.15 K	806.15	2.572
303.15 K	802.14	2.271

CCO [ethanol] + CN1CCNCC1
x1 = 1
Conditions	mass density [kg/m3]	viscosity [mPa·s]
293.15 K	789.32	1.17
298.15 K	785.06	1.078
303.15 K	780.68	0.982

CO [methanol] + CN1CCNCC1
x1 = 1
Conditions	mass density [kg/m3]	viscosity [mPa·s]
293.15 K	791.09	0.593
298.15 K	786.48	0.551
303.15 K	781.22	0.509
